# How the values were obtained:
# [1] = tested on: Mouse; test: Head twitch response to psilocybin after acute diazepam pretreatment; type: in vivo
# Protocol: (§1) Animals were dosed as detailed by Table 10 below and were placed in a clean cage. The number of head twitches and wet dog shakes were then counted by a scorer for 30 minutes after dosing. The timings of head twitches and wet dog shakes were recorded by a computer program. The experiment was carried out over three days. Scorers were blinded to treatment group.
# (§2) Number of head twitches over each 5-minute period and each 15-minute period and the total for 0-30 minutes were square-root transformed and analyzed by three way ANOVA with treatment, day, and scorer as factors. Ethovision data was analyzed by robust regression using M estimation, Huber weighting, using the default parameter C=1.345. The model used treatment, day, and scorer as factors.
# (§3) P<0.05 was the level accepted for statistical difference. The chance of a false positive is 5% for each dose for each time. All tests were carried out as two-sided tests.
# [2] = tested on: Mouse; test: Ethovision activity to psilocybin after acute diazepam pretreatment; type: in vivo
# Protocol: as §1
# Ethovision data was organized into 5-minute and 15-minute time periods and 0-30 minutes for each animal. Ethovision scores were log transformed, however Shapiro-Wilk tests were significant for many of the 5-minute and 15-minute time windows. Therefore, robust regression was used to analyze the Ethovision data.
# as §2, §3
# [3] = tested on: male C57BL/6J mice; test: Psilocybin head twitch response with chronic diazepam pre-treatment; type: in vivo
# Protocol: Sixty-two (60 plus 2 spares;) male C57BL/6J mice (20-25 g upon arrival) were purchased from Charles River UK. Animals were group housed (in 3 s and a pair) in polypropylene cages. Mice were maintained on a normal phase 12 h light-dark cycle (lights on: 07:00-19:00 h) with free access to standard rodent maintenance diet (standard pelleted diet Envigo 2018) and filtered tap water. The holding room was maintained at a temperature of 21±4° C. and relative humidity was 55±15% with prolonged periods below 40% RH or above 70% RH avoided as detailed in the UK Code of Practice. As a refinement, each cage contained sawdust, sizzle nest, a red house, Perspex tunnel, plastic chew stick and a nestlet so that the mice can make nests and facilitate warmth. Mice were weighed upon arrival and provided with wet mash overnight. The following morning, mice were weighed, and the mash removed.
# Mice were weighed and allocated into 6 treatment groups by a statistician (as per Table 20 below). […] For groups A-D animals were placed individually in clean cages with a light dusting of sawdust immediately following psilocybin administration (0.3 mg/kg, s.c) for head twitch response assessment. Head twitches were counted by a trained observer over a 30 minute period.
# Statistical significance was tested using two-way analysis of variance with treatment and observer as cofactors (Table 21 below).
# [4] = Solubility of psilocybin in water
# [5] = 0 to 5 mins, Psilocybin 0.3 mg/kg sc 1 hr post Diazepam 4 mg/kg ip or Saline ip
# [6] = 0 to 5 mins, Psilocybin 1 mg/kg sc 1 hr post Diazepam 4 mg/kg ip or Saline ip
# [7] = 0 to 5 mins, Psilocybin 3 mg/kg sc 1 hr post Diazepam 4 mg/kg ip or Saline ip
# [8] = 0 to 15 mins, Psilocybin 0.3 mg/kg sc 1 hr post Diazepam 4 mg/kg ip or Saline ip
# [9] = 0 to 15 mins, Psilocybin 1 mg/kg sc 1 hr post Diazepam 4 mg/kg ip or Saline ip
# [10] = 0 to 15 mins, Psilocybin 3 mg/kg sc 1 hr post Diazepam 4 mg/kg ip or Saline ip
# [11] = 0 to 30 mins (total), Psilocybin 0.3 mg/kg sc 1 hr post Diazepam 4 mg/kg ip or Saline ip
# [12] = 0 to 30 mins (total), Psilocybin 1 mg/kg sc 1 hr post Diazepam 4 mg/kg ip or Saline ip
# [13] = 0 to 30 mins (total), Psilocybin 3 mg/kg sc 1 hr post Diazepam 4 mg/kg ip or Saline ip
# [14] = 5 to 10 mins, Psilocybin 0.3 mg/kg sc 1 hr post Diazepam 4 mg/kg ip or Saline ip
# [15] = 5 to 10 mins, Psilocybin 1 mg/kg sc 1 hr post Diazepam 4 mg/kg ip or Saline ip
# [16] = 5 to 10 mins, Psilocybin 3 mg/kg sc 1 hr post Diazepam 4 mg/kg ip or Saline ip
# [17] = 10 to 15 mins, Psilocybin 0.3 mg/kg sc 1 hr post Diazepam 4 mg/kg ip or Saline ip
# [18] = 10 to 15 mins, Psilocybin 1 mg/kg sc 1 hr post Diazepam 4 mg/kg ip or Saline ip
# [19] = 10 to 15 mins, Psilocybin 3 mg/kg sc 1 hr post Diazepam 4 mg/kg ip or Saline ip
# [20] = 15 to 20 mins, Psilocybin 0.3 mg/kg sc 1 hr post Diazepam 4 mg/kg ip or Saline ip
# [21] = 15 to 20 mins, Psilocybin 1 mg/kg sc 1 hr post Diazepam 4 mg/kg ip or Saline ip
# [22] = 15 to 20 mins, Psilocybin 3 mg/kg sc 1 hr post Diazepam 4 mg/kg ip or Saline ip
# [23] = 15 to 30 mins, Psilocybin 0.3 mg/kg sc 1 hr post Diazepam 4 mg/kg ip or Saline ip
# [24] = 15 to 30 mins, Psilocybin 1 mg/kg sc 1 hr post Diazepam 4 mg/kg ip or Saline ip
# [25] = 15 to 30 mins, Psilocybin 3 mg/kg sc 1 hr post Diazepam 4 mg/kg ip or Saline ip
# [26] = 20 to 25 mins, Psilocybin 0.3 mg/kg sc 1 hr post Diazepam 4 mg/kg ip or Saline ip
# [27] = 20 to 25 mins, Psilocybin 1 mg/kg sc 1 hr post Diazepam 4 mg/kg ip or Saline ip
# [28] = 20 to 25 mins, Psilocybin 3 mg/kg sc 1 hr post Diazepam 4 mg/kg ip or Saline ip
# [29] = 25 to 30 mins, Psilocybin 0.3 mg/kg sc 1 hr post Diazepam 4 mg/kg ip or Saline ip
# [30] = 25 to 30 mins, Psilocybin 1 mg/kg sc 1 hr post Diazepam 4 mg/kg ip or Saline ip
# [31] = 25 to 30 mins, Psilocybin 3 mg/kg sc 1 hr post Diazepam 4 mg/kg ip or Saline ip
smiles,measurement,setting,value
"CN(C)CCc1c[nH]c2cccc(OP(=O)(O)O)c12 [Psilocybin, psilocybin]",Head twitches Mean,[1]; [5],1.84
same,Head twitches Mean,[1]; [6],2.42
same,Head twitches Mean,[1]; [7],5.34
same,Head twitches Mean,[1]; [8],5.57
same,Head twitches Mean,[1]; [9],6.32
same,Head twitches Mean,[1]; [10],12.4
same,Head twitches Mean,[1]; [11],8.38
same,Head twitches Mean,[1]; [12],8.98
same,Head twitches Mean,[1]; [13],15.66
same,Head twitches Mean,[1]; [14],1.64
same,Head twitches Mean,[1]; [15],1.39
same,Head twitches Mean,[1]; [16],4.67
same,Head twitches Mean,[1]; [17],1.36
same,Head twitches Mean,[1]; [18],1.44
same,Head twitches Mean,[1]; [19],2.07
same,Head twitches Mean,[1]; [20],0.93
same,Head twitches Mean,[1]; [21],1.35
same,Head twitches Mean,[1]; [22],1.07
same,Head twitches Mean,[1]; [23],2.57
same,Head twitches Mean,[1]; [24],2.39
same,Head twitches Mean,[1]; [25],2.5
same,Head twitches Mean,[1]; [26],0.39
same,Head twitches Mean,[1]; [27],0.43
same,Head twitches Mean,[1]; [28],0.66
same,Head twitches Mean,[1]; [29],0.59
same,Head twitches Mean,[1]; [30],0.15
same,Head twitches Mean,[1]; [31],0.34
same,Ethovision data Mean,[2]; [5],801.48
same,Ethovision data Mean,[2]; [6],826.56
same,Ethovision data Mean,[2]; [7],785.38
same,Ethovision data Mean,[2]; [8],2149.79
same,Ethovision data Mean,[2]; [9],2025.10
same,Ethovision data Mean,[2]; [10],1667.64
same,Ethovision data Mean,[2]; [11],3782.48
same,Ethovision data Mean,[2]; [12],3368.87
same,Ethovision data Mean,[2]; [13],2403.79
same,Ethovision data Mean,[2]; [14],704.55
same,Ethovision data Mean,[2]; [15],665.97
same,Ethovision data Mean,[2]; [16],516.00
same,Ethovision data Mean,[2]; [17],641.76
same,Ethovision data Mean,[2]; [18],519.27
same,Ethovision data Mean,[2]; [19],353.03
same,Ethovision data Mean,[2]; [20],517.51
same,Ethovision data Mean,[2]; [21],430.23
same,Ethovision data Mean,[2]; [22],271.26
same,Ethovision data Mean,[2]; [23],1630.42
same,Ethovision data Mean,[2]; [24],1337.33
same,Ethovision data Mean,[2]; [25],719.96
same,Ethovision data Mean,[2]; [26],519.96
same,Ethovision data Mean,[2]; [27],444.11
same,Ethovision data Mean,[2]; [28],208.90
same,Ethovision data Mean,[2]; [29],551.06
same,Ethovision data Mean,[2]; [30],430.12
same,Ethovision data Mean,[2]; [31],213.04
same,Mean head twitch responses,"[3]; 0-5 mins, Psilocybin 0.3 mg/kg sc 2 hr post Diazepam 1.25 mg/kg ip bid 14 days or Saline ip bid",0.76
same,Mean head twitch responses,"[3]; 0-5 mins, Psilocybin 0.3 mg/kg sc 24 hr post Diazepam 1.25 mg/kg ip bid 14 days or Saline ip bid",1.81
same,Mean head twitch responses,"[3]; 0-15 mins, Psilocybin 0.3 mg/kg sc 2 hr post Diazepam 1.25 mg/kg ip bid 14 days or Saline ip bid",2.93
same,Mean head twitch responses,"[3]; 0-15 mins, Psilocybin 0.3 mg/kg sc 24 hr post Diazepam 1.25 mg/kg ip bid 14 days or Saline ip bid",5.65
same,Mean head twitch responses,"[3]; 0-30 mins, Psilocybin 0.3 mg/kg sc 2 hr post Diazepam 1.25 mg/kg ip bid 14 days or Saline ip bid",5.78
same,Mean head twitch responses,"[3]; 0-30 mins, Psilocybin 0.3 mg/kg sc 24 hr post Diazepam 1.25 mg/kg ip bid 14 days or Saline ip bid",9.70
same,Mean head twitch responses,"[3]; 5-10 mins, Psilocybin 0.3 mg/kg sc 2 hr post Diazepam 1.25 mg/kg ip bid 14 days or Saline ip bid",0.81
same,Mean head twitch responses,"[3]; 5-10 mins, Psilocybin 0.3 mg/kg sc 24 hr post Diazepam 1.25 mg/kg ip bid 14 days or Saline ip bid",2.25
same,Mean head twitch responses,"[3]; 10-15 mins, Psilocybin 0.3 mg/kg sc 2 hr post Diazepam 1.25 mg/kg ip bid 14 days or Saline ip bid",0.81
same,Mean head twitch responses,"[3]; 10-15 mins, Psilocybin 0.3 mg/kg sc 24 hr post Diazepam 1.25 mg/kg ip bid 14 days or Saline ip bid",1.04
same,Mean head twitch responses,"[3]; 15-20 mins, Psilocybin 0.3 mg/kg sc 2 hr post Diazepam 1.25 mg/kg ip bid 14 days or Saline ip bid",0.60
same,Mean head twitch responses,"[3]; 15-20 mins, Psilocybin 0.3 mg/kg sc 24 hr post Diazepam 1.25 mg/kg ip bid 14 days or Saline ip bid",1.70
same,Mean head twitch responses,"[3]; 15-30 mins, Psilocybin 0.3 mg/kg sc 2 hr post Diazepam 1.25 mg/kg ip bid 14 days or Saline ip bid",2.35
same,Mean head twitch responses,"[3]; 15-30 mins, Psilocybin 0.3 mg/kg sc 24 hr post Diazepam 1.25 mg/kg ip bid 14 days or Saline ip bid",3.60
same,Mean head twitch responses,"[3]; 20-25 mins, Psilocybin 0.3 mg/kg sc 2 hr post Diazepam 1.25 mg/kg ip bid 14 days or Saline ip bid",0.32
same,Mean head twitch responses,"[3]; 20-25 mins, Psilocybin 0.3 mg/kg sc 24 hr post Diazepam 1.25 mg/kg ip bid 14 days or Saline ip bid",0.43
same,Mean head twitch responses,"[3]; 25-30 mins, Psilocybin 0.3 mg/kg sc 2 hr post Diazepam 1.25 mg/kg ip bid 14 days or Saline ip bid",0.80
same,Mean head twitch responses,"[3]; 25-30 mins, Psilocybin 0.3 mg/kg sc 24 hr post Diazepam 1.25 mg/kg ip bid 14 days or Saline ip bid",1.16
same,solubility,[4],~15 mg/mL

# Reference: US20250319095A1, “USE OF BENZO[…] INCREASE SENSITIVITY TO […] A CHRONIC SSRI REGIMEN” (Compass Pathfinder Limited, priority 2020, published 2025)
